Source: patent US8192962B2, “Processes for detecting toxic substances” (Daikin Industries, Ltd., priority 2001, dated 2012)

System: Energy system protein genes
Assay: DNA chip mRNA expression in yeast, energy system protein genes (Table 4)
Assay type: cell-based, Saccharomyces cerevisiae S288C
Outline: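 S. cerevisiae S288C grown at 25° C in YPD were exposed in log phase for two hours to one toxic chemical at a growth-inhibiting, non-lethal concentration; untreated cells served as control. Poly(A) mRNA was reverse-transcribed with Cy3/Cy5-dUTP and hybridized to a whole-genome yeast DNA chip at 65° C for over 12 hours; values are fluorescence ratios versus untreated.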

Na2As [(1)]
The level of expressed mRNA in the presence of chemical substance/The level of expressed mRNA in the absence of chemical substance (yeast gene YAL060W): 1.1
The level of expressed mRNA in the presence of chemical substance/The level of expressed mRNA in the absence of chemical substance (yeast gene YBL058W, cells incubated two hours with the chemical substance): 0.9
The level of expressed mRNA in the presence of chemical substance/The level of expressed mRNA in the absence of chemical substance (yeast gene YBL099W, cells incubated two hours with the chemical substance): 0.8
The level of expressed mRNA in the presence of chemical substance/The level of expressed mRNA in the absence of chemical substance (yeast gene YBR001C, cells incubated two hours with the chemical substance): 0.9
The level of expressed mRNA in the presence of chemical substance/The level of expressed mRNA in the absence of chemical substance (yeast gene YBR185C, cells incubated two hours with the chemical substance): 1.5
The level of expressed mRNA in the presence of chemical substance/The level of expressed mRNA in the absence of chemical substance (yeast gene YBR221C, cells incubated two hours with the chemical substance): 0.8
The level of expressed mRNA in the presence of chemical substance/The level of expressed mRNA in the absence of chemical substance (yeast gene YCL040W): 0.9
The level of expressed mRNA in the presence of chemical substance/The level of expressed mRNA in the absence of chemical substance (yeast gene YCR012W): 1.2
The level of expressed mRNA in the presence of chemical substance/The level of expressed mRNA in the absence of chemical substance (yeast gene YCR046C, cells incubated two hours with the chemical substance): 1.0
The level of expressed mRNA in the presence of chemical substance/The level of expressed mRNA in the absence of chemical substance (yeast gene YCR105W, cells incubated two hours with the chemical substance): 2.2
The level of expressed mRNA in the presence of chemical substance/The level of expressed mRNA in the absence of chemical substance (yeast gene YDL021W): 5.1
The level of expressed mRNA in the presence of chemical substance/The level of expressed mRNA in the absence of chemical substance (yeast gene YDL067C, cells incubated two hours with the chemical substance): 1.8
The level of expressed mRNA in the presence of chemical substance/The level of expressed mRNA in the absence of chemical substance (yeast gene YDL078C, cells incubated two hours with the chemical substance): 0.7
The level of expressed mRNA in the presence of chemical substance/The level of expressed mRNA in the absence of chemical substance (yeast gene YDL107W, cells incubated two hours with the chemical substance): 1.3
The level of expressed mRNA in the presence of chemical substance/The level of expressed mRNA in the absence of chemical substance (yeast gene YDL174C): 0.9
The level of expressed mRNA in the presence of chemical substance/The level of expressed mRNA in the absence of chemical substance (yeast gene YDL181W, cells incubated two hours with the chemical substance): 1.4
The level of expressed mRNA in the presence of chemical substance/The level of expressed mRNA in the absence of chemical substance (yeast gene YDR001C): 1.0
The level of expressed mRNA in the presence of chemical substance/The level of expressed mRNA in the absence of chemical substance (yeast gene YDR050C, cells incubated two hours with the chemical substance): 1.9
The level of expressed mRNA in the presence of chemical substance/The level of expressed mRNA in the absence of chemical substance (yeast gene YDR079W, cells incubated two hours with the chemical substance): 1.3
The level of expressed mRNA in the presence of chemical substance/The level of expressed mRNA in the absence of chemical substance (yeast gene YDR178W, cells incubated two hours with the chemical substance): 2.0
The level of expressed mRNA in the presence of chemical substance/The level of expressed mRNA in the absence of chemical substance (yeast gene YDR231C): 1.1
The level of expressed mRNA in the presence of chemical substance/The level of expressed mRNA in the absence of chemical substance (yeast gene YDR298C, cells incubated two hours with the chemical substance): 1.3
The level of expressed mRNA in the presence of chemical substance/The level of expressed mRNA in the absence of chemical substance (yeast gene YDR377W, cells incubated two hours with the chemical substance): 1.3
The level of expressed mRNA in the presence of chemical substance/The level of expressed mRNA in the absence of chemical substance (yeast gene YDR529C, cells incubated two hours with the chemical substance): 1.8
The level of expressed mRNA in the presence of chemical substance/The level of expressed mRNA in the absence of chemical substance (yeast gene YEL024W, cells incubated two hours with the chemical substance): 1.5
The level of expressed mRNA in the presence of chemical substance/The level of expressed mRNA in the absence of chemical substance (yeast gene YEL039C, cells incubated two hours with the chemical substance): 1.1
The level of expressed mRNA in the presence of chemical substance/The level of expressed mRNA in the absence of chemical substance (yeast gene YER178W): 0.8
The level of expressed mRNA in the presence of chemical substance/The level of expressed mRNA in the absence of chemical substance (yeast gene YFL057C): 20.9
The level of expressed mRNA in the presence of chemical substance/The level of expressed mRNA in the absence of chemical substance (yeast gene YFR053C): 1.8
The level of expressed mRNA in the presence of chemical substance/The level of expressed mRNA in the absence of chemical substance (yeast gene YGL018C, cells incubated two hours with the chemical substance): 1.5
The level of expressed mRNA in the presence of chemical substance/The level of expressed mRNA in the absence of chemical substance (yeast gene YGL062W): 0.6
The level of expressed mRNA in the presence of chemical substance/The level of expressed mRNA in the absence of chemical substance (yeast gene YGL187C, cells incubated two hours with the chemical substance): 1.5
The level of expressed mRNA in the presence of chemical substance/The level of expressed mRNA in the absence of chemical substance (yeast gene YGL191W, cells incubated two hours with the chemical substance): 2.3
The level of expressed mRNA in the presence of chemical substance/The level of expressed mRNA in the absence of chemical substance (yeast gene YGL205W, cells incubated two hours with the chemical substance): 1.0
The level of expressed mRNA in the presence of chemical substance/The level of expressed mRNA in the absence of chemical substance (yeast gene YGL256W, cells incubated two hours with the chemical substance): 0.9
The level of expressed mRNA in the presence of chemical substance/The level of expressed mRNA in the absence of chemical substance (yeast gene YGR043C): 2.6
The level of expressed mRNA in the presence of chemical substance/The level of expressed mRNA in the absence of chemical substance (yeast gene YGR062C, cells incubated two hours with the chemical substance, 25° C., YPD medium): 0.9
The level of expressed mRNA in the presence of chemical substance/The level of expressed mRNA in the absence of chemical substance (yeast gene YGR087C, cells incubated two hours with the chemical substance): 1.0
The level of expressed mRNA in the presence of chemical substance/The level of expressed mRNA in the absence of chemical substance (yeast gene YGR174C, cells incubated two hours with the chemical substance): 1.1
The level of expressed mRNA in the presence of chemical substance/The level of expressed mRNA in the absence of chemical substance (yeast gene YGR192C): 1.4
The level of expressed mRNA in the presence of chemical substance/The level of expressed mRNA in the absence of chemical substance (yeast gene YGR244C): 1.0
The level of expressed mRNA in the presence of chemical substance/The level of expressed mRNA in the absence of chemical substance (yeast gene YGR254W): 1.2
The level of expressed mRNA in the presence of chemical substance/The level of expressed mRNA in the absence of chemical substance (yeast gene YHR179W): 3.3
The level of expressed mRNA in the presence of chemical substance/The level of expressed mRNA in the absence of chemical substance (yeast gene YIL160C): 0.8
The level of expressed mRNA in the presence of chemical substance/The level of expressed mRNA in the absence of chemical substance (yeast gene YIR031C, cells incubated two hours with the chemical substance): 0.9
The level of expressed mRNA in the presence of chemical substance/The level of expressed mRNA in the absence of chemical substance (yeast gene YJL052W): 1.6
The level of expressed mRNA in the presence of chemical substance/The level of expressed mRNA in the absence of chemical substance (yeast gene YJL121C, cells incubated two hours with the chemical substance): 1.0
The level of expressed mRNA in the presence of chemical substance/The level of expressed mRNA in the absence of chemical substance (yeast gene YJL166W, cells incubated two hours with the chemical substance): 2.1
The level of expressed mRNA in the presence of chemical substance/The level of expressed mRNA in the absence of chemical substance (yeast gene YJL216C, cells incubated two hours with the chemical substance): 1.1
The level of expressed mRNA in the presence of chemical substance/The level of expressed mRNA in the absence of chemical substance (yeast gene YJR009C): 1.1
